Patent US7981875B2, “2″ oxo-voruscharin and derivatives thereof” (priority 2002, dated 2011)
Read-outs that look alike come from different tables or passages of the source.

What was measured:
[1] = tested on: U-373 MG; assay: MTT test, overall cell growth; assay type: cell-based, human; conditions: U-373, MTT, 72 hours of incubation
Description: (§1) In order to characterize the in vitro activities of the compounds according to the invention, MTT tests were carried out. The MTT test, which is a well-known test in the art, is an indirect technique that rapidly measures, i.e. within 5 days, the effect of a given product on the overall cell growth. This test measures the number of metabolically active living cells that are able to transform the MTT product (3-(4,5-dimethylthiazol-2-yl)-2,5 diphenyl tetrazolium bromide), having a yellowish color, to the blue product formazan dye by mitochondrial reduction. The amount of formazan obtained at the end of the experiment is measured with a spectrophotometer and is directly proportional to the number of living cells. Determination of the optical density enables a quantitative measurement of the effect of the investigated compounds as compared to the control condition (untreated cells) and to compare it to other reference compound. In the following examples different compounds according to the invention were tested and compared to the reference compound being uscharin.
(§2) Six human cancer cell lines, described in Table C, were tested in the presence of compounds according to the invention. These cell lines covered four histological cancer types, being Glioma, colon, lung and bladder cancer. The cells were allowed to grow in 96-well micro wells with a flat bottom with an amount of 100 μl of cell suspension per well in reason to 4000 cells/well depending on cell type. Each cell line was seeded in its own cell culture medium (Table C).
(§3) After a 24-hour period of incubation at 37° C., the culture medium is replaced by 100 μl of fresh medium in which the compound to be tested has been dissolved at different required concentrations. Different compounds were tested at 10^−9 M, 5×10^−9 M, 10^−8 M, 5×10^−8 M, 10^−7 M, 5×10^−7 M, 10^−6 M, 5×10^−6 M et 10^−5 M. Each experimental condition is carried out in hexaplicate. The compounds tested are 2″ oxo-voruscharin, and compounds B, C, D, E, H and I represented in Table B above.
(§4) After 72 hours of incubation at 37° C. with the compound (experimental conditions) or without the compound (control condition), the medium was replaced by 100 μl MTT at the concentration of 1 mg/ml dissolved in RPMI. The micro wells were subsequently incubated during 3 hours at 37° C. and centrifuged at 400 g during 10 minutes. The MTT was removed and formazan crystals formed, were dissolved in 100 μl DMSO. The micro wells were shaken for 5 minutes and read on a spectrophotometer at the wavelengths of 570 nm corresponding to the maximum formazan absorbance wavelength, and of 630 nm, which is the background noise wavelength.
(§5) For each experimental condition, the mean OD associated with the SEM (standard error of the mean) for each condition (6 wells) was calculated. The percentage of remaining living cells in comparison with the control was calculated. Results of these experiments are represented in FIGS. 2 to 8.

[2] = tested on: Hs683; assay: MTT test, overall cell growth; assay type: cell-based, human
Description: as §1, §2, §3, §4, §5

[3] = tested on: LoVo; assay: MTT test, overall cell growth; assay type: cell-based, human; conditions: 72 hours of incubation
Description: as §1, §2, §3, §4, §5

[4] = tested on: HCT-15; assay: MTT test, overall cell growth; assay type: cell-based, human
Description: as §1, §2, §3, §4, §5

[5] = tested on: J82; assay: MTT test, overall cell growth; assay type: cell-based, human
Description: as §1, §2, §3, §4, §5

[6] = tested on: A549; assay: MTT test, overall cell growth; assay type: cell-based, human; conditions: 72 hours of incubation
Description: as §1, §2, §3, §4, §5

[7] = Maximum Tolerated Dose in healthy mice; assay type: in vivo; conditions: single administration in mice, healthy animals, 14 days post-injection
Description: The Maximum Tolerated Dose (MTD) of a given drug is defined as the maximum amount of a drug which can be administered acutely (i.e. in one i.p., i.v., s.c. or per os single dose) to healthy animals, i.e. animals not grafted with tumors. The survival times and weights of the animals are recorded up to 14 days post-injection. Five different doses of each drug are used for the determination of the MTD index. When the MTD index is higher than 160 mg/kg (i.p. administration) the drug is usually considered to be non-toxic, and the highest dose administered to tumor-bearing mice is MTD/2=80 mg/kg. Each experimental group was composed of 3 mice for the determination of the MTD index.

[8] = tested on: HCT-15 human cancer cells; assay: Cell cycle kinetics by flow cytometry (propidium iodide); assay type: cell-based; design: key to Effect on cell cycle kinetics, G0/G1 / Effect on cell cycle kinetics, S / Effect on cell cycle kinetics, G2/M: n.s. means no significant; ** means highly significant; *** very highly significant
Description: (§6) Cell lines were seeded in flasks (25 cm^2 area) containing 7 ml of culture medium. After 48 hours incubation at 37° C. the cell culture medium was replaced by a fresh medium in which the substance to be tested had been dissolved at the different concentrations required. Uscharin and 2″ oxo-voruscharin were tested at concentrations, which kill 50% and 30% of the cell population, represented by the IC50 and IC30 values, respectively. After 24 or 72 hours of treatment the cells were harvested in suspension, washed in Phosphate Buffer Saline (PBS) at 4° C. and permeabilized with 70% ethanol (at 4° C.) overnight at −20° C. The cells were then washed with PBS and incubated with propidium iodide solution (80 μg/ml) for 30 minutes at 37° C. and afterward at 4° C. overnight. Ribonuclease A (3% V/V) was added to the PI solution to break doubled-stranded RNA. The portrait of the cell cycle was established for each sample. Software incorporated into the flow cytometer was used to define precisely the percentage of cells in the different cell cycle phases. Each cell cycle phase was reported in terms of peak surface and calculated as a percentage. The surface of the entire cell cycle was 100%. Each experiment was carried out 3 times. The mean percentage of each different phase and the standard error of the related mean were calculated. Each cell cycle phase of a given condition was compared with the same cell cycle phase of control. The non-treated cells constituted control.
(§7) Uscharin and 2″ oxo-voruscharin are highly toxic to human tumor cell lines. The concentrations used in the flow cytometry experiments were chosen in accordance with the MTT results (example 2). Three human cancer cell lines, Hs683, J82, and HCT-15 were tested and doses that killed 30 and 50 percent of the cells were applied to investigate whether uscharin and 2″ oxo-voruscharin promoted an accumulation in one of the cell cycle phases when the cell cultures were treated for 24 or 72 hours with increasing concentrations of the compounds. The IC50 and IC30 values for uscharin and 2″ oxo-voruscharin corresponding to the three tested cell lines are represented in Table E.

[9] = tested on: J82 human cancer cells; assay: as above; assay type: cell-based; design: key to Effect on cell cycle kinetics, G0/G1 / Effect on cell cycle kinetics, S / Effect on cell cycle kinetics, G2/M: n.s. means no significant; ** means highly significant; *** very highly significant
Description: as §6, §7

[10] = tested on: Hs683 human cancer cells; assay: as above; assay type: cell-based; design: key to Effect on cell cycle kinetics, G0/G1 / Effect on cell cycle kinetics, S / Effect on cell cycle kinetics, G2/M: n.s. means no significant; ** means highly significant; *** very highly significant
Description: as §6, §7

[11] = Hs683, MTT, 72 hours of incubation, read-out: IC50 value
[12] = HCT-15, MTT, 72 hours of incubation, read-out: IC50 value
[13] = J82, MTT, 72 hours of incubation, read-out: IC50 value

CC1CC2(NC(CC(=O)c3ccccc3)CS2)C2(O)OC3CC4(CO)C(CCC5C4CCC4(C)C(C6=CC(=O)OC6)CCC54O)CC3OC2O1 (single isomer, unassigned) [Compound H]
IC50 [1]: 0.01 to 0.05 µM
IC50 [2, 11]: 0.001 to 0.005 µM
IC50 [3]: 0.01 to 0.05 µM
IC50 [4, 12]: 0.01 to 0.05 µM
IC50 [5, 13]: 1 to 5 µM
IC50 [6]: 0.001 to 0.005 µM
MTD index [7]: 80 mg/kg

CC(=O)OCC12CC3OC4(O)C(OC(C)CC45N=CCS5)OC3CC1CCC1C2CCC2(C)C(C3=CC(=O)OC3)CCC12O (centres unmarked) [Compound E]
IC50 [1]: 1 to 5 µM
IC50 [2, 11]: 1 to 5 µM
IC50 [3]: 1 to 5 µM
IC50 [4, 12]: 1 to 5 µM
IC50 [5, 13]: > 10 µM
IC50 [6]: 1 to 5 µM

CC1CC2(NC(CC(=O)c3ccccc3)CS2)C2(O)OC3CC4(CO)C(CCC5C4CCC4(C)C(C6=CC(=O)OC6)CCC54O)CC3OC2O1 (single isomer, unassigned) [Compound I]
IC50 [1]: 0.01 to 0.05 µM
IC50 [2, 11]: 0.001 to 0.005 µM
IC50 [3]: 0.01 to 0.05 µM
IC50 [4, 12]: 0.01 to 0.05 µM
IC50 [5, 13]: 1 to 5 µM
IC50 [6]: 0.001 to 0.005 µM
MTD index [7]: 80 mg/kg

CC(=O)OCC12CC3OC4(O)C(OC(C)CC45NC(=O)CS5)OC3CC1CCC1C2CCC2(C)C(C3=CC(=O)OC3)CCC12O (centres unmarked) [Compound C]
IC50 [1]: 1 to 5 µM
IC50 [2, 11]: 1 to 5 µM
IC50 [3]: 1 to 5 µM
IC50 [4, 12]: 1 to 5 µM
IC50 [5, 13]: > 10 µM
IC50 [6]: 1 to 5 µM
MTD index [7]: > 40 mg/kg

CC1CC2(N=CCS2)C2(O)OC3CC4(CO)C(CCC5C4CCC4(C)C(C6=CC(=O)OC6)CCC54O)CC3OC2O1 (centres unmarked) [Compound D]
IC50 [1]: 0.01 to 0.05 µM
IC50 [2, 11]: 0.001 to 0.005 µM
IC50 [3]: 0.001 to 0.005 µM
IC50 [4, 12]: 0.01 to 0.05 µM
IC50 [5, 13]: 5 to 10 µM
IC50 [6]: 0.01 to 0.05 µM
MTD index [7]: 10 mg/kg

C[C@@H]1CC2(N=CCS2)C2(O)O[C@@H]3C[C@]4(C=O)C5CC[C@]6(C)[C@@H](C7=CC(=O)OC7)CC[C@]6(O)[C@@H]5CC[C@H]4C[C@H]3O[C@@H]2O1 (some centres unmarked) [uscharin]
Effect on cell cycle kinetics, G0/G1 ([8]; HCT-15, 24 h): n.s.
Effect on cell cycle kinetics, G2/M ([8]; HCT-15, 24 h): n.s.
Effect on cell cycle kinetics, S ([8]; HCT-15, 24 h): n.s.
Effect on cell cycle kinetics, G0/G1 ([8]; HCT-15, 72 h): n.s.
Effect on cell cycle kinetics, G2/M ([8]; HCT-15, 72 h): n.s.
Effect on cell cycle kinetics, S ([8]; HCT-15, 72 h): **
cell cycle, S-phase ([8]; HCT-15, 72 hours, highest concentration tested (4.3×10^−8 M uscharin, 1.2×10^−8 M 2″oxo-voruscharin)): accumulation in S-phase
Effect on cell cycle kinetics, G0/G1 ([9]; J82, 24 h): n.s.
Effect on cell cycle kinetics, G2/M ([9]; J82, 24 h): n.s.
Effect on cell cycle kinetics, S ([9]; J82, 24 h): ***
Effect on cell cycle kinetics, G0/G1 ([9]; J82, 72 h): n.s.
Effect on cell cycle kinetics, G2/M ([9]; J82, 72 h): n.s.
Effect on cell cycle kinetics, S ([9]; J82, 72 h): ***
cell cycle, S-population ([9]; J82, independent of the concentrations applied or the timing of treatment): significant increase in the S-population
cell cycle, S-phase ([10]; Hs683, 1.7×10^−7 M for 24 and 72 hours, statistically significant): accumulation of cells in S-phase
cell cycle, G2/M-phase ([10]; Hs683, 1.7×10^−7 M for 24 hours): significant accumulation in G2/M-phase
Effect on cell cycle kinetics, G0/G1 ([10]; Hs683, 24 h): n.s.
Effect on cell cycle kinetics, G2/M ([10]; Hs683, 24 h): ***
Effect on cell cycle kinetics, S ([10]; Hs683, 24 h): ***
Effect on cell cycle kinetics, G0/G1 ([10]; Hs683, 72 h): n.s.
Effect on cell cycle kinetics, G2/M ([10]; Hs683, 72 h): n.s.
Effect on cell cycle kinetics, S ([10]; Hs683, 72 h): ***
IC50 ([1]; Homo sapiens, U373 MG): 0.01 to 0.05 µM
IC50 ([2]; Homo sapiens, Hs 683, Hs683, MTT, 72 hours of incubation, read-out: IC50 value): 0.001 to 0.005 µM
IC50 ([2]; Homo sapiens, Hs 683, Hs683, Table E, concentration used for flow cytometry, chosen in accordance with MTT results, read-out: IC50): 0.17 µM
IC30 ([2]; Hs683, Table E, concentration which kills 30% of the cell population): 0.043 µM
IC50 ([3]; Homo sapiens): 0.005 to 0.01 µM
IC30 ([4]; HCT-15, Table E, concentration which kills 30% of the cell population): 0.0085 µM
IC50 ([4]; Homo sapiens, HCT-15, MTT, 72 hours of incubation, read-out: IC50 value): 0.01 to 0.05 µM
IC50 ([4]; Homo sapiens, HCT-15, Table E, concentration used for flow cytometry, chosen in accordance with MTT results, read-out: IC50): 0.043 µM
IC50 ([5]; Homo sapiens, J82, MTT, 72 hours of incubation, read-out: IC50 value): 5 to 10 µM
IC50 ([5]; Homo sapiens, J82, Table E, concentration used for flow cytometry, chosen in accordance with MTT results, read-out: IC50): 4.3 µM
IC30 ([5]; J82, Table E, concentration which kills 30% of the cell population): 1.7 µM
IC50 ([6]; Homo sapiens): 0.01 to 0.05 µM
